Laboratory results: patent publication US20120136033A1, “Small Molecule Antagonists of Phosphatidylinositol-3,4,5-Triphosphate (PIP3) and Uses Thereof” (President and Fellows of Harvard College, priority 2009, published 2012)
One block for each molecule: values may come before it.

Tests used:
[1] = test system: SV40-transformed mouse adult lung fibroblasts; experiment: loss of viability, Akt1-expressing vs Akt1-3 triple knockout lung fibroblasts; assay type: cell-based; settings: P<0.01
Description: Shaughnessy J D (2008) Nature 454:172-3; Weinstein I G (2002) Science 297:63-4. Therefore, the possibility that PIT-1 may cause preferential cell death in the cells containing elevated PIP3 levels was examined. […] Li D M et al. (1998) Proc Natl Acad Sci USA 95:15406-11. […] This observation is consistent with the notion that PTEN-deficient cancer cells become overly dependent on PIP3 signaling and, therefore, are hypersensitive to disruption of this pathway compared to wild-type PTEN-expressing cells. Neshat M S et al. (2001) Proc Natl Acad Sci USA 98:10314-9.

human cancer cells = experiment: transwell (Boyden chamber) migration of cancer cells; assay type: cell-based
Method: Two models of cell migration were used, a transwell migration model and a wound closure model. Migration of cancer and endothelial cells was evaluated using 24-transwell Boyden chamber (Costar, Bedford, Mass.) with a polystyrene membrane (6.5 mm diameter, 10 μm thickness, and 8 μm pore size). Cells were suspended in serum-free media and seeded in the upper compartment of each well (2×10^4 cells/well) in the presence or absence of different compounds at the indicated concentrations. The lower compartment contained 600 μl of serum-free culture media supplemented with growth factors. After an 8-hr incubation at 37° C., cells were fixed and stained with 0.1% crystal violet. Non-migrating cells on the upper surface of the filter were removed, and the stained cells that migrated to the lower side were photographed using a phase-contrast microscope (Nikon, Japan) in five random fields. The cells were lysed with 10% acetic acid, and colorimetric determination was made at 595 nm using Wallac Victor 3 plate reader.

cells = experiment: cell death with inhibitors of mitochondrial respiration and ATP synthase; assay type: cell-based
Description: Elstrom R L et al. (2004) Cancer Res 64:3892-9.

CD31 = experiment: tumor angiogenesis in vivo, microvasculature marker CD31; settings: mouse
Method: Tumor tissues were fixed in phosphate-buffered formalin, embedded in paraffin, cut in 4 μM thickness, and applied to slides. The slides were deparaffinized in xylenes using three changes for 5 min each, and hydrated gradually through graded alcohols: 100% ethanol twice for 10 min each, 95% ethanol twice for 10 min each, and then deionized water for 1 min with stirring. For antigen unmasking, slides were placed in a container, covered with 10 mM sodium citrate buffer, pH 6.0, and heated in a convection steamer for 1 hr. The slides were washed in deionized water three times for 2 min each, blocked with 5% normal goat blocking serum for 30 min, incubated with goat anti-CD31 primary antibody for 1 hr, and incubated with an Alexa Fluor 488-conjugated secondary antibody for 30 min. The slides were analyzed and photographed using a fluorescent microscope. TUNEL staining was performed using FragEL kit according to manufacturer's instructions (Calbiochem).
In view of the significant inhibitory effect of PIT-1 on angiogenesis observed in vitro, the extent of angiogenesis in DM-PIT-1-treated tumors was examined in vivo using microvasculature marker CD31. […] Suppression of angiogenesis also likely contributed to the suppression of tumor growth by DM-PIT-1 treatment in vivo, considering a relatively low dose of the compound used in the experiments.

4T1 breast cancer = experiment: syngeneic 4T1 breast tumor growth in BALB/c mice; assay type: in vivo, mouse
Method: After inoculation of tumor cells, DM-PIT-1 or DM-PIT-1-M were administered i.v. daily at doses of 0.4 mg/kg and 1 mg/kg, respectively, for 8 days. Tumor volumes as measured every two days are shown.
The effect of intravenous (i.v.) administration of both unencapsulated DM-PIT-1 in PBS and DM-PIT-1-M on the syngeneic 4T1 breast cancer growth in BALB/c mice was examined. 4T1 metastatic breast cancer cells were first cultured in vitro in DMEM medium containing 10% FBS and antibiotics. After re-suspension in PBS, the 4T1 cancer cells (8×10^4) were injected s.c. into axillary regions of BALB/c mice. The treatment with PIT-1 began on day 11 after inoculation of tumor cells, i.e., when tumors were palpable, but before tumors are precisely measurable (˜50 mm^3). Working solutions of all PIT-1-formulations were made in sterile 0.9% NaCl before injection into mice. Free DM-PIT-1 and micellar DM-PIT-1 were administered i.v. daily at doses of 0.4 and 1 mg/kg, respectively, for 8 days. If the tumor size reached approx. 1000 mm^3, the mice were euthanized using carbon dioxide (CO2) prior to cervical dislocation. Seven mice per group were used. The tumor volume (V) was measured every two days by microcaliper for 8 days. Tumor volume was calculated according to the formula ([…])/2, where α is the longest and b is the shortest diameter of tumor, respectively.

[2] = solubility / precipitation; assay type: physicochemical; settings: 300 μM, unencapsulated, cell media
Description: This method has been reported to be efficient for in vivo targeting of cancer cells by other poorly soluble anti-cancer drugs, such as m-porphyrin, tamoxifen, and taxol. Gao Z et al. (2003) J Drug Target 11:87-92; Torchilin V P et al. (2003) Proc Natl Acad Sci USA 100:6039-44.
The size of the DM-PIT-1-loaded micelles was about 15 nm with a narrow size distribution.

U87MG cells [3] = experiment: U87MG cell viability, ATP assay; assay type: cell-based, human
Method: U87MG cells were incubated with PITs (12.5-100 μM) for 48 hr. Cell viability was determined using ATP assay.
Based on the critical role of PIP3-dependent Akt signaling in the regulation of cell survival, the effect of PIT-1 on the cancer cell viability was tested. Cancer cells were seeded into 96-well plates (white plates for ATP assay; black plates for fluorescent assay; clear plates for MTS assay) at the density of 5-10×10^3 cells per well in 100 μl of the appropriate media. Compounds were added at a series of concentrations and incubated for different times. For the ATP assay, a luminescence-based commercial kit (CellTiter-Glo, Promega, Madison, Wis.) was used. Thirty microliters of cell lysis/ATP detection reagent was added to each well, mixed for 10 min at room temperature, and the luminescence was measured using a Wallac Victor 3 plate reader (Perkin-Elmer, Wellesley, Mass.). For the MTS assay, a CellTiter 96 AQueous Non-Radioactive Cell Proliferation Assay Kit (Promega, Madison, Wis., USA) was used. Twenty microliters of the combined MTS/PMS solution was added into each well, incubated for 4 hr at 37° C., and the absorbance at 490 nm was measured using a Wallac Victor 3 plate reader. For the Sytox cell death assay, measuring loss of plasma membrane integrity, cells were incubated with 1 μM Sytox Green reagent (Molecular Probes, Eugene, Oreg.) for 30 min at 37° C. and the fluorescence intensity was measured using Wallac Victor 3 plate reader with excitation at 485 nm and emission at 545 nm. Next, 5 μl of 20% (v/v) Triton X-100 solution was added to each well and incubated for 1 hr at 37° C., and the signal was measured again. The ratio of values (percentage of dead cells in each well) before and after Triton X-100 treatment was calculated and normalized to the relevant controls not subjected to the cytotoxic stimuli. IC50 values were determined using Origin6 software (MicroCal, LLC, Northampton, Mass.).

PI3K-PDK1-Akt pathway = PI3K-PDK1-Akt pathway phosphorylation events in U87MG cells; assay type: cell-based, human
Method: The effect of PIT-1 on PIP3-mediated signaling was examined in U87MG glioblastoma cells, which show elevated basal levels of PIP3 due to the loss of PTEN. Pore N et al. (2003) Cancer Res 63:236-41.

[4] = test system: PH domains of Akt, PDK1, and IRS1; settings: cited from earlier work
[5] = cited from earlier work
U87MG cells [6] = experiment: sensitization of U87MG cells to killing by TRAIL, ATP assay; assay type: cell-based, human
Method: FIG. 10 is a bar graph depicting that PITs, as well as Akt inhibitor VIII, sensitize U87MG cells to killing by TRAIL. U87MG cells were incubated with 50 μM PIT-1, PIT-2, PIT-1i-1 or 10 μM Akt inhibitor VIII in the presence or absence of 10 ng/ml TRAIL for 48 hr, followed by cell viability analysis using ATP assay.
Based on the critical role of PIP3-dependent Akt signaling in the regulation of cell survival, the effect of PIT-1 on the cancer cell viability was tested. Cancer cells were seeded into 96-well plates (white plates for ATP assay; black plates for fluorescent assay; clear plates for MTS assay) at the density of 5-10×10^3 cells per well in 100 μl of the appropriate media. […] For the ATP assay, a luminescence-based commercial kit (CellTiter-Glo, Promega, Madison, Wis.) was used. Thirty microliters of cell lysis/ATP detection reagent was added to each well, mixed for 10 min at room temperature, and the luminescence was measured using a Wallac Victor 3 plate reader (Perkin-Elmer, Wellesley, Mass.). […] Twenty microliters of the combined MTS/PMS solution was added into each well, incubated for 4 hr at 37° C., and the absorbance at 490 nm was measured using a Wallac Victor 3 plate reader. […] Next, 5 μl of 20% (v/v) Triton X-100 solution was added to each well and incubated for 1 hr at 37° C., and the signal was measured again. […]

Molecule: O=c1[nH]c2ccccc2n1C1CCN(Cc2ccc(-c3nc4cc5[nH]cnc5cc4nc3-c3ccccc3)cc2)CC1 [Akt kinase inhibitor VIII, reference compound]
loss of viability in Akt1-expressing fibroblasts compared to Akt1-3 triple knockout cells [1]: comparable
inhibition of cancer cell migration (human cancer cells; transwell / wound healing models): lack thereof
synergy with oligomycin, antimycin A and rotenone in inducing cell death (cells): synergized

precipitation in cell media at 300 μM [2]: significant precipitation
Molecule: Cc1cc(C)cc(C(=O)NC(=S)Nc2cc([N+](=O)[O-])ccc2O)c1 [DM-PIT-1]
CD31 loci in treated tumors (angiogenesis in vivo) (CD31): attenuation of a number of CD31 loci
activity compared to PIT-1 in inhibition of cell migration (human cancer cells): increased activity
tumor growth in vivo compared to control (4T1 breast cancer; 8-day administration, P<0.01): significantly attenuated tumor growth
reduction of tumor volume as compared to control (4T1 breast cancer; day 8, i.v. daily, free 0.4 mg/kg, micellar 1 mg/kg): 58.1%
tumor volume (4T1 breast cancer; day 8, i.v. daily, free 0.4 mg/kg, micellar 1 mg/kg, control 902.5±153): 380±52.3 mm^3
activity compared to PIT-1 in inducing cell death in U87MG cells (U87MG cells [3]): increased activity
activity compared to PIT-1 in inhibition of PI3K-PDK1-Akt signaling (PI3K-PDK1-Akt pathway): increased activity

Molecule: CC1=NN(C(=O)c2ccc(Cl)cc2)C(=O)C1N=Nc1ccc(S(=O)(=O)Nc2ncccn2)cc1 (centres unmarked) [NSC 348900, 4-[1-(4-chlorobenzoyl)-3-methyl-5-oxo-4,5-dihydro-1H-pyrazol-4-ylazo]-N-pyrimidine-2-yl-benzenesulfonamide]
interaction with PH domains of Akt, PDK1, and IRS1 [4]: capable of interacting
in vivo anti-tumor activity [5]: lacked in vivo anti-tumor activity

B1: TRAIL: Tumor necrosis factor (TNF)-related apoptosis-inducing ligand, 281 amino acid-long member of the TNF family of cytokines (protein, UniProt P50591 1-281, looked up)
chain: MAMMEVQGGPSLGQTCVLIVIFTVLLQSLCVAVTYVYFTNELKQMQDKYSKSGIACFLKEDDSYWDPNDEESMNSPCWQVKWQLRQLVRKMILRTSEETISTVQEKQQNISPLVRERGPQRVAAHITGTRGRSNTLSSPNSKNEKALGRKINSWESSRSGHSFLSNLHLRNGELVIHEKGFYYIYSQTYFRFQEEIKENTKNDKQMVQYIYKYTSYPDPILLMKSARNSCWSKDAEYGLYSIYQGGIFELKENDRIFVSVTNEHLIDMDHEASFFGAFLVG
modifications: full-length
notes: Tumor necrosis factor (TNF)-related apoptosis-inducing ligand, 281 amino acid-long member of the TNF family of cytokines
sensitivity of U87MG cells to TRAIL alone (U87MG cells [6]): entirely resistant
